The source of these data is PubChem BioAssay AID1615 (Sanford-Burnham Center for Chemical Genomics, 2009).

In brackets after ≈: the same amount, converted by molar mass.

The data set relates to aqueous buffer solubility, UV absorbance, 18 h equilibrium. As to the kind of experiment: equilibrium solubility at several pH values – biophysical, UV absorbance, pH 5.0, 6.2, 7.4, ADME assay, late-stage follow-up (AID 1615). To be noted: at 300 µM, stronger effect = higher value.

For orientation: solubility means how much of the substance goes into solution per volume. In the case of `C=CCn1c(SCC(=O)c2ccc(O)c(O)c2)nnc1-c1ccccc1OC`, the solubility is 18 µg/mL (≈ 45.3 µM). The same compound yielded a solubility (measured here: solubility at pH 5.0) of 8.4 µg/mL (≈ 21.1 µM). Also, under “measured here: solubility at pH 6.2”, the solubility worked out at 8.4 µg/mL (≈ 21.1 µM).
